Reference: patent US8828954B2, “Use for scopolin and derivatives thereof” (Yonsei University Technology Holdings, Inc., priority 2010, dated 2014)
Marks after values point to notes of the source that are not given here.

Assays:
3T3-L1 cells = experiment: Inhibition of adipocyte differentiation in 3T3-L1 cells (Oil Red O staining); format: cell-based, mouse; settings: scopolin 0.1, 1, 10, 50 and 100 μM, 14 days, FIG. 1
Description: Mouse adipocyte cell line (3T3-L1) was used to investigate the effect of scopolin on differentiation and growth of adipocytes. The preadipocytes, 3T3-L1 cells, were seeded on a 12-well plate and cultured to confluency using Dulbecco's modified Eagle's medium (DMEM) containing 1% penicillin-streptomycin, 1% non-essential amino acid and 10% fatal bovine serum (FBS), in a 5% CO2 incubator at 37° C. The 3T3-L1 cells grown to confluency were cultured for 2 days in MDI medium containing 0.5 mM isobutylmethylxanthine, 1 μM dexamethasone and 1 μg/mL insulin to differentiate them into differention adipocytes. Then, the cells were further cultivated in DMEM containing 1 μg/mL insulin to differentiate them into mature adipocytes. The cells were further cultured for 10 more days while replacing DMEM every other day to obtain fully differentiated adipocytes.
From the first day when MDI was added to the 3T3-L1 cells, scopolin was treated at concentrations of 0.1, 1, 10, 50 and 100 μM with 2-day intervals. Scopolin was used after being dissolved in DMSO. Only DMSO was added to the negative control group. […] In order to measure the level of triglyceride contained in the differentiated 3T3-L1 cells, the stained lipid droplets were dissolved in 1 mL of isobutanol and optical density (OD) value was measured at 600 nm.

PPARγ2 = experiment: RT-PCR of PPARγ2 mRNA in epididymal fat tissue; format: in vivo, mouse; settings: SPID vs HFD, relative to GAPDH, FIG. 4
Description: (§1) Accordingly, to identify that scopolin inhibits directly obesity-related gene expressions, the inventors examined whether obesity-related gene is expressed according to scopolin treatment through RNA was isolated from epididymal fat tissues obtained in the example 3 and performed RT-PCR.
(§2) First, after adding 1 mL of Trizol agent per 0.1 g of epididymal fat tissues, the mixture was homogenized and centrifuged at 12,000×g for 10 min at 4° C. The supernatant was transferred to a new tube and 200 μl of chloroform was added to the tube, followed by vortexing. The same procedure was repeated twice and then the supernatant was transferred to a new tube, followed by addition of isopropanol and the supernatant at 1:1 ratio. The mixture was vigorously shaken 10 times and then incubated for 10 min at room temperature, followed by centrifugation at 12,000×g for 10 min at 4° C. to remove the supernatant. After adding 1 mL of 70% ethanol to the remaining pellet, it was centrifuged at 7,500×g for 5 min at 4° C. After removing the ethanol, the RNA pellet contained in the tube was dried for 5 min at 4° C. and dissolved in nuclease-free water. The RNA concentration of sample was measured at a wavelength of 260 nm and 280 nm using a UV/VIS spectrophotometer (Beckman coulter, DU730) and the integrity of RNA sample was verified by agarose gel electrophoresis. […]

[1] = Plasma lipid and glucose levels in high-fat diet fed mice; format: in vivo, mouse; settings: SPID group, 10 weeks
Description: (§3) The obesity-inducing control diet used in the present test was high-fat diet (HFD: 40% fat calorie, 17 g lard+3% corn oil/100 g diet). Diets supplemented with scopolin had the same composition as HF, except that each derivative was included at 0.02%. The diabetic drug metformin was added at 0.1% or the hyperlipidemic drug atorvastatin was added at 0.01% to HFD as controls. The normal diet (ND) was prepared according to the AIN-76 rodent diet composition (American Institute of Nutrition, Report of the American Institute of Nutrition ad hoc committee on standards for nutritional studies. J. Nutr., 107: 1340-1348, (1977)) (Table 1).
(§4) 5-week-old male […] mice (Orient, Korea) were accustomed to the laboratory environment for 1 week while feeding solid feed. Then, they were randomly divided into high-fat diet and test groups and bred for a total of 10 weeks. The diet was given between 10 and 11 a.m. every day together with water. Food intake was measured every day and body weight was measured once a week. In order to avoid transient body weight increase after feed intake, body weight was measured 2 hours after removing the feed.
(§5) After fasting the test animal for at least 12 hours and anesthetizing with diethyl ether, blood, liver and visceral fat (epididymal fat, perirenal fat, mesenteric fat and retroperitoneal fat) were taken and weighed after washing with 0.1 M PBS (pH 7.4). Blood taken from the abdominal aorta was centrifuged at 1000×g for 15 minutes for the separation of plasma.
(§6) After 10 weeks of breeding, total cholesterol, HDL-cholesterol, triglyceride and glucose levels in the plasma and lipid levels in the liver tissue were measured as follows: Total cholesterol, HDL-cholesterol, triglyceride, free fatty acid and glucose levels in the plasma were measured twice for each using a commercially available kit (Bio Clinical System). The level of LDL+VLDL in plasma was calculated by subtracting HDL level from the total cholesterol level. The activities of ALT (alanine aminotransferase) and AST (aspartate aminotransferase) used as liver function indicator were measured using a commercially available kit (Bio Clinical System, Korea).

[2] = Body weight and visceral fat weight in high-fat diet fed mice, 10 weeks; format: in vivo, mouse; settings: 0.02% scopolin in high-fat diet
Description: as §3, §4, §5

[3] = system: mouse intraperitoneal macrophages; settings: macrophages stimulated with ionophore; J Nat Prod 1996; cited from earlier work
aP2 = experiment: RT-PCR of aP2 mRNA in epididymal fat tissue; format: in vivo, mouse; settings: SPID vs HFD, relative to GAPDH, FIG. 4
Description: as §1, §2

acetylcholine esterase = acetylcholine esterase (Homo sapiens, UniProt P22303); settings: J Med Chem 2004; cited from earlier work
acetylcholine esterase, sequence (P22303 32-614): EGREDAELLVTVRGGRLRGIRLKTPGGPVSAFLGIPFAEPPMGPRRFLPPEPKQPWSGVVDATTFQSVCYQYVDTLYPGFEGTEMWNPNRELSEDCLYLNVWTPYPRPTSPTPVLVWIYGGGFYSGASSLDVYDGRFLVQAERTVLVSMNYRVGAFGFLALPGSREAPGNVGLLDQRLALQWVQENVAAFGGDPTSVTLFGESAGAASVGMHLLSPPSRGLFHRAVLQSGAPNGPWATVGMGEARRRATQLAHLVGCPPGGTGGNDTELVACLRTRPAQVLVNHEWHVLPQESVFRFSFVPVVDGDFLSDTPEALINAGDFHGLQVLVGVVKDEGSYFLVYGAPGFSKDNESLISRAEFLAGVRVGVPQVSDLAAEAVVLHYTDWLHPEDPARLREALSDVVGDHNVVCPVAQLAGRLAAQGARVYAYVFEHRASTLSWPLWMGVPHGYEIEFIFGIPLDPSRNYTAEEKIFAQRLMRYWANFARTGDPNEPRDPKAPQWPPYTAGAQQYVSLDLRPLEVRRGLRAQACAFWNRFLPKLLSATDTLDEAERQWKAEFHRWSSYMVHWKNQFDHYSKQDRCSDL

C/EBPα = experiment: RT-PCR of C/EBPα mRNA in epididymal fat tissue; format: in vivo, mouse; settings: SPID vs HFD, relative to GAPDH, FIG. 4
Description: as §1, §2

UCP1 = experiment: RT-PCR of UCP1 mRNA in epididymal fat tissue; format: in vivo, mouse; settings: HFD-induced decrease, relative to GAPDH, FIG. 5
Description: as §1, §2

UCP3 = experiment: RT-PCR of UCP3 mRNA in epididymal fat tissue; format: in vivo, mouse; settings: HFD-induced decrease, relative to GAPDH, FIG. 5
Description: as §1, §2

[4] = ALT and AST activities (liver function indicators) in high-fat diet fed mice; format: in vivo, mouse; settings: SPID group, 10 weeks
Description: as §3, §4, §5, §6

[5] = Liver weight and liver tissue lipid levels in high-fat diet fed mice; format: in vivo, mouse; settings: SPID group, 10 weeks
Description: as §3, §4, §5
In addition, lipids were extracted from the liver tissue according to Folch et al.'s method (Folch J, Lees M, Sloane Stanley G H. A simple method for the isolation and purification of total lipides from animal tissues. J Biol. Chem. 1957; 226:497-509). After adding 1 mL of distilled water to 0.25 g of the liver tissue, the liver tissue was homogenized using a Polytron homogenizer (IKA-Werke GmbH & Co., Ultra-Turrax, Staufen, Germany). After adding 5 mL of chloroform:methanol solution (2:1, v/v) to the homogenate and mixing well, the mixture was centrifuged at 1000×g for 10 minutes. After adding 2 mL of chloroform:methanol solution (2:1, v/v) again to the supernatant, the same procedure was repeated to completely separate the lipid components of the liver. After adding 3 mL of chloroform:methanol:0.05% CaCl2 (3:48:47, v/v/v) solution to the remaining pellets and mixing well for 1 minute, followed by centrifugation at 1000×g for 10 minutes, the resulting pellets were completely dried with nitrogen gas. The dried lipids were dissolved in 1 mL of methanol and then analyzed. The commercially available kits (Bio Clinical System, Korea) were used to measure the levels of triglyceride, cholesterol and free fatty acids of the liver tissue.

## COc1cc2ccc(=O)oc2cc1OC1OC(CO)C(O)C(O)C1O [scopolin, 7-(beta-D-glucopyranosoyloxy)-6-methoxy-2H-1-benzopyran-2-one]
3T3-L1 cells
  differentiation of the preadipocytes (Oil Red O staining): reduced the differentiation of the preadipocytes in a concentration-dependent manner
PPARγ2
  PPARγ2 mRNA expression level: significantly reduced expressions
[1]
  lower plasma level of LDL+VLDL cholesterol as compared to HFD: 30%
  lower plasma level of free fatty acid as compared to HFD: 27%
  lower plasma level of total cholesterol as compared to HFD: 23%
  lower plasma level of triglyceride as compared to HFD: 28%
  reduction of the fasting blood sugar level as compared to HFD: 16%
[1]; plasma, mean±SEM, n=8
  Free fatty acid: 635 ± 65.6^b μEq/g
  Total cholesterol: 5.07 ± 0.26^b mmol/l
  Triglyceride: 0.65 ± 0.07^b mmol/l
[1]; plasma, total cholesterol minus HDL
  LDL + VLDL cholesterol: 3.88 ± 0.27^b mmol/l
[1]; plasma, fasting, mean±SEM, n=8
  Glucose: 7.51 ± 0.32^b mmol/l
[2]
  decrease of cumulative body weight gain as compared to HFD: 22%
  decrease of final body weight as compared to HFD: 10%
  reduction of epididymal fat-pad weight as compared to HFD: 29%
  reduction of mesenteric fat-pad weight as compared to HFD: 28%
  reduction of perirenal fat-pad weight as compared to HFD: 33%
  reduction of retroperitoneal fat-pad weight as compared to HFD: 31%
  reduction of total visceral fat weight as compared to HFD: 30%
[3]
  eicosanoid release: suppression of eicosanoid release
aP2
  aP2 mRNA expression level: significantly reduced expressions
Acetylcholine esterase
  acetylcholine esterase inhibition: inhibits acetylcholine esterase
C/EBPα
  C/EBPα mRNA expression level: significantly reduced expressions
UCP1
  UCP1 mRNA expression level: significantly reversed
UCP3
  UCP3 mRNA expression level: significantly reversed
[4]
  decrease of plasma activity of ALT as compared to HFD: 46%
  decrease of plasma activity of AST as compared to HFD: 41%
[4]; plasma activity, mean±SEM, n=8
  ALT (alanine aminotransferase): 5.55 ± 0.78^b IU/L
  AST (aspartate aminotransferase): 5.80 ± 0.43 IU/L
[5]
  decrease of cholesterol in liver tissue as compared to HFD: 21%
  decrease of free fatty acid in liver tissue as compared to HFD: 33%
  decrease of triglyceride in liver tissue as compared to HFD: 22%
  reduction of absolute weight of liver as compared to HFD: 23%
[5]; mean±SEM, n=8
  Liver weight: 1.7 ± 0.14^b g
[5]; liver tissue, mean±SEM, n=8
  Cholesterol: 102.9 ± 5.4^b μmol/g
  Free fatty acid: 33.6 ± 4.6^b μEq/g
  Triglyceride: 55.6 ± 5.3^b μmol/g
